According to the NIST ThermoML archive (doi:10.1016/j.jct.2005.02.003):

Experiment: molar heat capacity at constant pressure
Conditions: 101.33 kPa

CC(C)COC(C)(C)C [isobutyl tert-butyl ether]
Conditions	molar heat capacity at constant pressure [J/K/mol]
5 K, Crystal	0.38
7.68 K, Crystal	1.339
8.33 K, Crystal	1.743
8.97 K, Crystal	2.217
9.61 K, Crystal	2.779
10 K, Crystal	3.042
10.26 K, Crystal	3.32
11.02 K, Crystal	4.139
11.92 K, Crystal	5.166
12.83 K, Crystal	6.289
13.74 K, Crystal	7.45
14.65 K, Crystal	8.714
15 K, Crystal	9.221
15.57 K, Crystal	10.02
16.48 K, Crystal	11.42
17.41 K, Crystal	12.82
18.34 K, Crystal	14.27
19.27 K, Crystal	15.69
20 K, Crystal	16.85
20.2 K, Crystal	17.2
21.22 K, Crystal	18.77
22.29 K, Crystal	20.45
23.35 K, Crystal	22.1
24.42 K, Crystal	23.8
25 K, Crystal	24.7
25.49 K, Crystal	25.53
26.55 K, Crystal	27.09
27.63 K, Crystal	28.56
28.7 K, Crystal	30.12
29.77 K, Crystal	31.74
30 K, Crystal	32.07
30.84 K, Crystal	33.37
31.91 K, Crystal	34.71
32.98 K, Crystal	36.13
34.05 K, Crystal	37.59
35 K, Crystal	38.76
35.12 K, Crystal	38.89
36.19 K, Crystal	40.25
37.26 K, Crystal	41.63
38.34 K, Crystal	42.83
39.41 K, Crystal	44.07
40 K, Crystal	44.8
40.47 K, Crystal	45.31
41.54 K, Crystal	46.53
42.6 K, Crystal	47.83
43.66 K, Crystal	48.91
44.72 K, Crystal	50.25
45 K, Crystal	50.39
45.78 K, Crystal	51.18
46.84 K, Crystal	52.39
47.9 K, Crystal	53.45
48.96 K, Crystal	54.66
50 K, Crystal	55.71
50.01 K, Crystal	55.57
51.07 K, Crystal	56.57
52.12 K, Crystal	57.81
53.17 K, Crystal	59.02
54.22 K, Crystal	60.27
55 K, Crystal	60.91
55.27 K, Crystal	61.56
56.31 K, Crystal	63.16
57.36 K, Crystal	64.51
58.41 K, Crystal	64.56
59.46 K, Crystal	65.29
60 K, Crystal	66.03
63.63 K, Crystal	70.22
64.68 K, Crystal	70.75
65 K, Crystal	71.08
65.72 K, Crystal	72.16
66.76 K, Crystal	73.11
67.8 K, Crystal	74.04
68.84 K, Crystal	74.44
69.88 K, Crystal	75.46
70 K, Crystal	76.09
70.92 K, Crystal	76.66
71.95 K, Crystal	77.53
74.01 K, Crystal	79.84
75 K, Crystal	81.05
75.04 K, Crystal	81.32
76.07 K, Crystal	82.23
77.1 K, Crystal	83.09
79.16 K, Crystal	85.64
80 K, Crystal	85.97
80.19 K, Crystal	86.55
80.42 K, Glass	91.54
80.56 K, Crystal	86.3
81.22 K, Crystal	87.3
81.39 K, Glass	92.71
82.25 K, Crystal	88.55
82.32 K, Glass	93.45
83.28 K, Crystal	89.21
83.29 K, Glass	95.2
83.57 K, Crystal	89.05
84.28 K, Glass	95.95
85 K, Crystal	90.88
85.22 K, Glass	97.36
86.13 K, Glass	97.2
86.51 K, Crystal	92.54
87.04 K, Glass	98.86
87.51 K, Crystal	93.29
87.98 K, Glass	100.5
88.51 K, Crystal	93.95
88.93 K, Glass	101.4
89.5 K, Crystal	95.12
89.88 K, Glass	102.9
90 K, Crystal	95.78
